Assay: MALDI-TOF screening of Ni^2+ dependent hydrolysis in a combinatorial peptide library
Type: physicochemical
Conditions: Ni^2+ 2 mM, pH 8.2, 10 mM Tris, score=24/tm
How it was run: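 Peptide sublibraries CH3CO-Gly-Ala-Ser/Thr-X-His-Z-Lys-Phe-Leu-NH2 (1 mM total) incubated with 2 mM Ni^2+ in 10 mM Tris pH 8.2 at 37 °C and 45 °C. Hydrolysis products, plus loss of substrate signals, detected by MALDI-TOF at 2, 4, 6 and 8 h; residues X and Z scored and ranked.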

[1] = CH3CO-Gly-Ala-Ser-X-His-Z-Lys-Phe-Leu-NH2 library, 37° C.
[2] = CH3CO-Gly-Ala-Ser-X-His-Z-Lys-Phe-Leu-NH2 library, 45° C.
[3] = CH3CO-Gly-Ala-Thr-X-His-Z-Lys-Phe-Leu-NH2 library, 37° C.
[4] = CH3CO-Gly-Ala-Thr-X-His-Z-Lys-Phe-Leu-NH2 library, 45° C.

With Ac-GASRHNKFL-NH2 [SRHN] the “hydrolysis score from MALDI-TOF screening” value (from here on “hydrolysis score”) [1] was 0 (a score of 0 if no trace of the product of hydrolysis was seen after 8 hours of incubation) and the “hydrolysis score” value [2] was 0 (a score of 0 if no trace of the product of hydrolysis was seen after 8 hours of incubation).
With Ac-GATGHKKFL-NH2 [TGHK] the “hydrolysis score” value [3] was 0 (a score of 0 if no trace of the product of hydrolysis was seen after 8 hours of incubation) and the “hydrolysis score” value [4] was 0 (a score of 0 if no trace of the product of hydrolysis was seen after 8 hours of incubation).
With Ac-GASAHWKFL-NH2 [SAHW] the “hydrolysis score” value [1] was 4 (a score of 4 for detection at 6 hours) and the “hydrolysis score” value [2] was 6 (a score of 6 for detection at 4 hours).
For Ac-GATYHDKFL-NH2 [TYHD], the “hydrolysis score” value [3] was 0 (a score of 0 if no trace of the product of hydrolysis was seen after 8 hours of incubation) and the “hydrolysis score” value [4] was 0 (a score of 0 if no trace of the product of hydrolysis was seen after 8 hours of incubation).
In the case of Ac-GATVHKKFL-NH2 [TVHK], the “hydrolysis score” value [3] is reported as 0 (a score of 0 if no trace of the product of hydrolysis was seen after 8 hours of incubation) and the “hydrolysis score” value [4] is reported as 0 (a score of 0 if no trace of the product of hydrolysis was seen after 8 hours of incubation).
In the case of Ac-GATIHPKFL-NH2 [TIHP], the “hydrolysis score” value [3] is reported as 0 (a score of 0 if no trace of the product of hydrolysis was seen after 8 hours of incubation) and the “hydrolysis score” value [4] is reported as 0 (a score of 0 if no trace of the product of hydrolysis was seen after 8 hours of incubation).
With Ac-GASPHDKFL-NH2 [SPHD] the “hydrolysis score” value [1] was 0 (a score of 0 if no trace of the product of hydrolysis was seen after 8 hours of incubation) and the “hydrolysis score” value [2] was 0 (a score of 0 if no trace of the product of hydrolysis was seen after 8 hours of incubation).
With Ac-GATLHMKFL-NH2 [TLHM] the “hydrolysis score” value [3] was 0 (a score of 0 if no trace of the product of hydrolysis was seen after 8 hours of incubation) and the “hydrolysis score” value [4] was 0 (a score of 0 if no trace of the product of hydrolysis was seen after 8 hours of incubation).
For Ac-GATFHLKFL-NH2 [TFHL], the “hydrolysis score” value [3] was 0 (a score of 0 if no trace of the product of hydrolysis was seen after 8 hours of incubation) and the “hydrolysis score” value [4] was 0 (a score of 0 if no trace of the product of hydrolysis was seen after 8 hours of incubation).
With Ac-GATGHDKFL-NH2 [TGHD] the “hydrolysis score” value [3] was 0 (a score of 0 if no trace of the product of hydrolysis was seen after 8 hours of incubation) and the “hydrolysis score” value [4] was 0 (a score of 0 if no trace of the product of hydrolysis was seen after 8 hours of incubation).
In the case of Ac-GATSHWKFL-NH2 [TSHW], the “hydrolysis score” value [3] is reported as 0 (a score of 0 if no trace of the product of hydrolysis was seen after 8 hours of incubation) and the “hydrolysis score” value [4] is reported as 0 (a score of 0 if no trace of the product of hydrolysis was seen after 8 hours of incubation).
With Ac-GASQHKKFL-NH2 [SQHK] the “hydrolysis score” value [1] was 4 (a score of 4 for detection at 6 hours) and the “hydrolysis score” value [2] was 6 (a score of 6 for detection at 4 hours).
In the case of Ac-GASAHNKFL-NH2 [SAHN], the “hydrolysis score” value [1] is reported as 0 (a score of 0 if no trace of the product of hydrolysis was seen after 8 hours of incubation) and the “hydrolysis score” value [2] is reported as 0 (a score of 0 if no trace of the product of hydrolysis was seen after 8 hours of incubation).
In the case of Ac-GASNHRKFL-NH2 [SNHR], the “hydrolysis score” value [1] is reported as 6 (a score of 6 for detection at 4 hours) and the “hydrolysis score” value [2] is reported as 6 (a score of 6 for detection at 4 hours).
For Ac-GATKHWKFL-NH2 [TKHW], the “hydrolysis score” value [3] was 6 (a score of 6 for detection at 4 hours) and the “hydrolysis score” value [4] was 12 (a score of 12, if it was seen to be partially hydrolysed at 2 hours).

Reference: patent US8969516B2, “Method of hydrolysis of peptide bond” (priority 2006, dated 2015)
